Measured values from patent publication US20230220010A1, “BROAD-SPECTRUM ANTIVIRAL PEPTIDES” (priority 2020, published 2023).
“Also recorded” adds a separate entry of the source. Square brackets hold non-standard residues; d marks the D form. Ends that are not written are not given here. Peptide text beside a SMILES is read from it.

Assays:
H3N2 influenza virus = details: for EC50: influenza virus
HEK 293T/17 cells = test: Cytotoxicity assay, CELLTITER-GLO, HEK cells; details: for cell viability, HEK 293T/17 cells: peptide concentrations approximately below 4 μM, about 72 hours; for cytotoxicity against HEK cells: CELLTITER-GLO, 3 days
[1] = tested on: Lassa pseudovirus (LASVpv); details: for EC50: 72 h
[2] = Cytotoxicity assay, ALAMARBLUE, HEK cells
HEK cells [3] = test: Cytotoxicity with varying serum (FBS) concentrations, HEK cells; details: for effect of serum concentration on cytotoxicity: 0-50% FBS
HEK cells [4] = test: Cytotoxicity assay, ALAMARBLUE, HEK cells; details: HEK cells with or without LASVpv, ALAMARBLUE
Vero E6 cells = test: Cytotoxicity assay, CELLTITER-GLO, Vero E6 cells; details: peptide concentrations at or below 2 μM, about 72 hours
dengue virus type 2 = details: read-out: EC50 against dengue virus (DENV); plaque assay
HEK cells [5] = test: Cytotoxicity with varying cell densities, HEK cells; details: 5×10^3 to 1×10^5 cells/well
[6] = tested on: Lassa pseudovirus (LASVpv); details: 1 h, 50 μM
human adenovirus 5 = details: read-out: EC50 against adenovirus (AdV); plaque assay

| Molecule | EC50 (H3N2 influenza virus) | EC50 [1] | EC50 [2] | also measured |
| --- | --- | --- | --- | --- |
| CC(C)C[C@@H](NC(=O)[C@@H](C)NC(=O)[C@@H](Cc1c[nH]c2ccccc12)NC(=O)CNC(=O)[C@@H](CCCNC(=N)N)NC(=O)[C@H](N)CCCNC(=N)N)C(=O)N[C@H](CCCNC(=N)N)C(=O)N[C@H](CC(C)C)C(=O)N[C@@H](C(=O)N[C@H](CC(C)C)C(=O)N[C@H](C)C(=O)N[C@H](Cc1ccc(O)cc1)C(N)=O)C(C)C [*arva] (H-[dR][dR]G[dW][dA][dL][dR][dL][dV][dL][dA][dY]-NH2) | 0.4 µM | – | – | – |
| CC(C)C[C@@H](NC(=O)[C@@H](Cc1c[nH]c2ccccc12)NC(=O)CNC(=O)[C@@H](CCCNC(=N)N)NC(=O)[C@H](N)CCCNC(=N)N)C(=O)N[C@H](CC(C)C)C(=O)N[C@H](CC(C)C)C(=O)N[C@H](CCCNC(=N)N)C(=O)N[C@H](CC(C)C)C(=O)N[C@H](CC(C)C)C(=O)N[C@H](CCCNC(=N)N)C(=O)N[C@H](CC(C)C)C(=O)N[C@H](CC(C)C)C(=O)N[C@H](CC(C)C)C(=O)N[C@H](CCCNC(=N)N)C(=O)N[C@H](CC(C)C)C(=O)N[C@H](CC(C)C)C(=O)N[C@H](Cc1c[nH]c2ccccc12)C(=O)NCC(=O)N[C@H](CCCNC(=N)N)C(=O)N[C@H](CCCNC(=N)N)C(N)=O [D-AHR, rrgwlllrllrlllrllwgrr] (H-[dR][dR]G[dW][dL][dL][dL][dR][dL][dL][dR][dL][dL][dL][dR][dL][dL][dW]G[dR][dR]-NH2) | – | – | – | cell viability, HEK 293T/17 cells (HEK 293T/17 cells): high cell viability |
| CC(C)C[C@@H](NC(=O)[C@@H](C)NC(=O)[C@@H](CC(C)C)NC(=O)[C@@H](CCCCN)NC(=O)[C@@H](CC(C)C)NC(=O)[C@@H](CO)NC(=O)[C@@H](Cc1ccccc1)NC(=O)CNC(=O)[C@@H](CCCNC(=N)N)NC(=O)[C@H](N)CCCNC(=N)N)C(=O)N[C@H](CC(C)C)C(=O)N[C@H](CCCCN)C(=O)N[C@H](CC(=O)O)C(=O)NCC(=O)N[C@H](Cc1c[nH]c2ccccc12)C(=O)N[C@H](CC(C)C)C(=O)N[C@H](CC(C)C)C(=O)N[C@H](CC(C)C)C(=O)N[C@H](CCCNC(=N)N)C(=O)N[C@H](CC(C)C)C(=O)NCC(=O)N[C@H](Cc1ccc(O)cc1)C(=O)NCC(=O)N[C@H](CCCNC(=N)N)C(=O)N[C@H](CCCNC(=N)N)C(N)=O [D-IT1b, rrgfslklallkdgwlllrlgygrr] (H-[dR][dR]G[dF][dS][dL][dK][dL][dA][dL][dL][dK][dD]G[dW][dL][dL][dL][dR][dL]G[dY]G[dR][dR]-NH2) | – | – | – | cell viability, HEK 293T/17 cells (HEK 293T/17 cells): high cell viability |
| CC(C)C[C@@H](NC(=O)[C@@H](Cc1c[nH]c2ccccc12)NC(=O)CNC(=O)[C@@H](CCCNC(=N)N)NC(=O)[C@H](N)CCCNC(=N)N)C(=O)N[C@H](CC(C)C)C(=O)N[C@H](CC(C)C)C(=O)N[C@H](CCCNC(=N)N)C(=O)N[C@H](CC(C)C)C(=O)N[C@H](CC(C)C)C(=O)N[C@H](CC(C)C)C(=O)N[C@H](Cc1c[nH]c2ccccc12)C(=O)NCC(=O)N[C@H](CCCNC(=N)N)C(=O)N[C@H](CCCNC(=N)N)C(N)=O [D-TL3, rrgwlllrlllwgrr] (H-[dR][dR]G[dW][dL][dL][dL][dR][dL][dL][dL][dW]G[dR][dR]-NH2) | – | – | – | cell viability, HEK 293T/17 cells (HEK 293T/17 cells): high cell viability |
| CC(C)C[C@@H](NC(=O)[C@@H](Cc1c[nH]c2ccccc12)NC(=O)[C@@H](CCCNC(=N)N)NC(=O)[C@H](N)CCCNC(=N)N)C(=O)N[C@H](CC(C)C)C(=O)N[C@H](CC(C)C)C(=O)N[C@H](CC(C)C)C(=O)N[C@H](CC(N)=O)C(=O)N[C@H](CC(C)C)C(=O)N[C@H](CC(C)C)C(=O)N[C@H](CC(C)C)C(=O)N[C@H](CC(C)C)C(=O)N[C@H](Cc1c[nH]c2ccccc12)C(=O)N[C@H](CCCNC(=N)N)C(=O)N[C@H](CCCNC(=N)N)C(N)=O [D-TL4NdG, rrwllllnllllwrr] (H-[dR][dR][dW][dL][dL][dL][dL][dN][dL][dL][dL][dL][dW][dR][dR]-NH2) | – | – | – | cell viability, HEK 293T/17 cells (HEK 293T/17 cells): high cell viability |
| CC[C@H](C)[C@H](NC(=O)CN)C(=O)NCC(=O)N[C@@H](C)C(=O)N[C@H](C(=O)N[C@@H](CC(C)C)C(=O)N[C@@H](CCCCN)C(=O)N[C@H](C(=O)N[C@@H](CC(C)C)C(=O)N[C@H](C(=O)N[C@H](C(=O)NCC(=O)N[C@@H](CC(C)C)C(=O)N1CCC[C@H]1C(=O)N[C@@H](C)C(=O)NCC(=O)N[C@H](C(=O)N[C@@H](CO)C(=O)N[C@@H](Cc1c[nH]c2ccccc12)C(=O)N[C@H](C(=O)N[C@@H](CCCCN)C(=O)N[C@@H](CCCNC(=N)N)C(=O)N[C@@H](CCCCN)C(=O)N[C@@H](CCCNC(=N)N)C(=O)N[C@@H](CCC(N)=O)C(=O)N[C@@H](CCC(N)=O)C(N)=O)[C@@H](C)CC)[C@@H](C)CC)[C@@H](C)O)[C@@H](C)O)C(C)C)C(C)C [Mel-L16G, reference compound] | – | 28 µM | 21 µM | – |
| GIGAVLKGLATGLPAGISWIKQQAQL-NH2 [MelN4, reference compound] | – | > 100 µM | > 100 µM | – |
| KDGWLLLRLGYGRR [Cterm-Cat] | – | – | – | antiviral activity against LASVpv [1]: next most active peptide |
| KLALLKDGWLLLR [Mid-Cat] | – | – | – | antiviral activity against LASVpv [1]: moderate potency |
| LALLKDGWLLL [Mid] | – | – | – | antiviral activity against LASVpv [1]: no antiviral activity |
| PLZYLRLLRGQF [TP2, reference compound] | – | – | – | activity against H3N2 (H3N2 influenza virus): some antiviral activity |
| RRGFSLKLALLKDGWLLLLRLGYGRR-NH2 [IT1-f] | 1.5 µM | 1.1 µM | 20 µM | – |
| RRGFSLKLALLKDGWLLLRLGYGRR-NH2 [IT1-b] | 2.3 µM | 1.4 µM | > 75 µM | effect of serum concentration on cytotoxicity (HEK cells [3]): far less cytotoxic as serum concentration increases; cell viability in the presence and absence of virus (HEK cells [4]): varies in the presence and absence of virus; cell viability, Vero E6 cells (Vero E6 cells): High cell viability; EC50 (dengue virus type 2): 0.225 µM; effect of cell density on cytotoxicity (HEK cells [5]): remained consistent as cell density increases |
| RRGFSLKLALLYRGWLLLLRLGYGRR-NH2 [IT1-c] | 1.2 µM | – | – | – |
| RRGFSLKLKLLYRGWALALRLGYGRR-NH2 [IT1-e] | 0.6 µM | 1.2 µM | > 50 µM | – |
| RRGFSLKLLLSYRGWALLRLGYGRR-NH2 [IT1-a] | 1.6 µM | 1.6 µM | 19 µM | cell viability in the presence and absence of virus (HEK cells [4]): varies in the presence and absence of virus |

| Molecule | EC50 (H3N2 influenza virus) | EC50 [1] | EC50 [2] | also measured |
| --- | --- | --- | --- | --- |
| RRGFSLKLRLLYRGWGLALRLGYGRR-NH2 [IT1-d] | 0.4 µM | 1.3 µM | > 100 µM | – |
| RRGWALRLNLYYGRR-NH2 [*ARNY*, RRGWALRLNLYYGRR] | 4.5 µM | 2.2 µM | > 100 µM | cell viability in the presence and absence of virus (HEK cells [4]): no difference |
| RRGWALRLVLAY-NH2 [*ARVA, RRGWALRLVLAY] | 0.9 µM | 6.2 µM | > 75 µM | – |
| RRGWGLRLVLYYGRR-NH2 [*GRVY*, RRGWGLRLVLYYGRR] | 9.1 µM | 2.1 µM | – | – |
| RRGWLLLLNLLLLWGRR-NH2 [TL4N, RRGWLLLLNLLLLWGRR] | – | – | – | CC50 compared to IT1b (HEK 293T/17 cells; % greater than that of IT1b, HEK cells): over 500%; cytotoxicity against HEK cells (HEK 293T/17 cells): much less cytotoxic than TL3 |
| RRGWLLLRLLLWGRR-NH2 [TL3, RRGWLLLRLLLWGRR] | – | – | – | cytotoxicity in 0% FBS (HEK cells [3]): does display cytotoxicity; cytotoxicity in 10%, 25%, and 50% FBS (HEK cells [3]): completely noncytotoxic; cell viability, Vero E6 cells (Vero E6 cells): High cell viability; effect of cell density on cytotoxicity (HEK cells [5]): increases as cell density increases |
| RRGWNLALTLTYGRR-NH2 [*NATT*, RRGWNLALTLTYGRR] | 0.7 µM | 1.2 µM | 43 µM | cell viability in the presence and absence of virus (HEK cells [4]): no difference |
| RRGWNLRLRLVYGRR-NH2 [*NRRV*, RRGWNLRLRLVYGRR] | 8 µM | – | 15 µM | – |
| RRGWRLNLNLYYGRR-NH2 [*RNNY*, RRGWRLNLNLYYGRR] | 2.3 µM | 2.1 µM | 19 µM | – |
| RRGWTLNLTLNYGRR-NH2 [*TNTN*, RRGWTLNLTLNYGRR] | 6.1 µM | 1.1 µM | 22 µM | – |
| RRGWVLDLVLYYGRR-NH2 [*VDVY*, RRGWVLDLVLYYGRR] | 12 µM | 5 µM | > 100 µM | – |
| RRRRRRRRRWC-NH2 [Arg9, RRRRRRRRRWC, reference compound] | 6.7 µM | > 100 µM | > 75 µM | – |
| RRWLLLLNLLLLWRR-NH2 [TL4NdG, RRWLLLLNLLLLWRR] | – | – | – | inhibition of LASVpv at 50 μM peptide [6]: greater than 50%; cytotoxicity against HEK cells (HEK 293T/17 cells): least cytotoxic test peptide; also recorded: much less cytotoxic than TL3; also recorded: least cytotoxic peptide tested; effect of serum concentration on cytotoxicity (HEK cells [3]): essentially unchanged by serum concentration; EC50 (human adenovirus 5): > 10 µM; cell viability, Vero E6 cells (Vero E6 cells): High cell viability; effect of cell density on cytotoxicity (HEK cells [5]): remained consistent as cell density increases |
| RRWLLLLRLLLLWRR-NH2 [TL4dG, RRWLLLLRLLLLWRR] | – | – | – | cytotoxicity against HEK cells (HEK 293T/17 cells): less cytotoxic than TL3 |
| WALRLYLGVY-NH2 [ARYV, WALRLYLGVY] | 3.7 µM | 7.9 µM | – | – |
| WVLVLRLGY-NH2 [VVRG, WVLVLRLGY] | 6.1 µM | – | – | – |
